# Source: PMC12951562, “SH2scan: Mapping SH2 Domain-Ligand Binding Selectivity for Inhibitors and Degraders” (Journal of Medicinal Chemistry, 2026)
# Non-standard residues stand in square brackets, D forms with d. Residues, ends and D or L forms follow the SMILES beside them. pY = N[C@@H](Cc1ccc(OP(=O)(O)O)cc1)C(=O)O
# Key:
# Test in all cases: biochemical
# Assay type in all cases: binding
# DAPP1 = biological target: T1, DAPP1 (Homo sapiens, UniProt Q9UN19)
# T1 construct: the DNA-tagged SH2 domain concentrations used in this study were <0.1 nM; made in house; host or cells: HEK293 (transient transfection; unpurified extract)
# T1 sequence (Q9UN19 35-129 limits assumed): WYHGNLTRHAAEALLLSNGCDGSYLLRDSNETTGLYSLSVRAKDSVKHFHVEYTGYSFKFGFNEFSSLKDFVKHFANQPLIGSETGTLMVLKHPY
# SOCS4 = biological target: T2, SOCS4 (Homo sapiens, UniProt Q8WXH5)
# T2 construct: made in house; host or cells: HEK293 (transient transfection), unpurified extract
# T2 sequence (Q8WXH5 1-440): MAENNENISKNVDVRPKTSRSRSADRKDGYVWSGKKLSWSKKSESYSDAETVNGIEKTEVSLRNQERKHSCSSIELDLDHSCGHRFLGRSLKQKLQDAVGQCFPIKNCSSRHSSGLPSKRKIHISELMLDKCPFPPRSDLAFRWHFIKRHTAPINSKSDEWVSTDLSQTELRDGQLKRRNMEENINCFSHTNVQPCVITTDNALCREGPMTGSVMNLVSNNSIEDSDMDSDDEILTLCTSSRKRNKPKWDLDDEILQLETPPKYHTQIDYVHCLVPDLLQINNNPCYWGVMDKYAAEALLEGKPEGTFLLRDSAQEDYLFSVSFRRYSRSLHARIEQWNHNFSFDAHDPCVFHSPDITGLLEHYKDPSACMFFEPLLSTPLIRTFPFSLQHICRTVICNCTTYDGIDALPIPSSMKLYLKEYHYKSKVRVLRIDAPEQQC
# PTPN6(SH2dom.C-term.) = biological target: T3, PTPN6(SH2dom.C-term.) (Homo sapiens, UniProt P29350)
# T3 construct: SH2dom.C-term. denotes SH2 domain closest to C-terminus of protein; made in house; host or cells: HEK293 (transient transfection, unpurified extract)
# T3 sequence (P29350 110-213 limits assumed): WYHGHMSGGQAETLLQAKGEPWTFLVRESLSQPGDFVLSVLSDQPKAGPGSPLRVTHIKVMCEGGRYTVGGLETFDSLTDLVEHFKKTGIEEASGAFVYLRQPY
# CRKL = biological target: T4, CRKL (Homo sapiens, UniProt P46109)
# T4 construct: the DNA-tagged SH2 domain concentrations used in this study were <0.1 nM; made in house; host or cells: HEK293 (transient transfection; unpurified extract)
# RASA1(SH2dom.C-term.) = biological target: T5, RASA1(SH2dom.C-term.) (Homo sapiens, UniProt P20936)
# T5 construct: SH2dom.C-term. denotes SH2 domain closest to C-terminus of protein; made in house; host or cells: HEK293 (transient transfection, unpurified extract)
# T5 sequence (P20936 351-441 limits assumed): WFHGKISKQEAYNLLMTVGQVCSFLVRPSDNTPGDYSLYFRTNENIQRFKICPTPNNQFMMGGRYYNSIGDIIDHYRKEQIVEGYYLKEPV
# PLCG1(SH2dom.C-term.) = biological target: T6, PLCG1(SH2dom.C-term.) (Homo sapiens, UniProt P19174)
# T6 construct: SH2dom.C-term. denotes SH2 domain closest to C-terminus of protein; made in house; host or cells: HEK293 (transient transfection, unpurified extract)
# T6 sequence (P19174 668-756 limits assumed): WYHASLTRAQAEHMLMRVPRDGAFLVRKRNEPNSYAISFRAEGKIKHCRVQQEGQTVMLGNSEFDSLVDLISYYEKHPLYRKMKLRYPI
# TXK = biological target: T7, TXK (Homo sapiens, UniProt P42681)
# T7 construct: made in house; host or cells: HEK293 (transient transfection), unpurified extract
# T7 sequence (P42681 1-527): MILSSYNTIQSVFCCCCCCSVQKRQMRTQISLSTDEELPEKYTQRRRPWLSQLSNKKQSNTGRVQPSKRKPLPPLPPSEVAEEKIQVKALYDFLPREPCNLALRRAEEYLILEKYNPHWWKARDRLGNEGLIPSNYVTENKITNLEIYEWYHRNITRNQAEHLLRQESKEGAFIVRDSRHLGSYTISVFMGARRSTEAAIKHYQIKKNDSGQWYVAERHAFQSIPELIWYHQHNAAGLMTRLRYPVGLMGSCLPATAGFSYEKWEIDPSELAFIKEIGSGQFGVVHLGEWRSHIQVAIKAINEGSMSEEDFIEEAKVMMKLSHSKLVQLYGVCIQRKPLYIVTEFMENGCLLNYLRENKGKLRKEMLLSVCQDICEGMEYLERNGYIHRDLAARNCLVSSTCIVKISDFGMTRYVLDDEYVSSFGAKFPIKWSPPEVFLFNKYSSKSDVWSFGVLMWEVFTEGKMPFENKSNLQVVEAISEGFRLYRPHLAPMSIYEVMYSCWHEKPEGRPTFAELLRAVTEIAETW
# VAV1 = biological target: T8, VAV1 (Homo sapiens, UniProt P15498)
# T8 construct: made in house; host or cells: HEK293 (transient transfection), unpurified extract
# T8 sequence (P15498 1-845): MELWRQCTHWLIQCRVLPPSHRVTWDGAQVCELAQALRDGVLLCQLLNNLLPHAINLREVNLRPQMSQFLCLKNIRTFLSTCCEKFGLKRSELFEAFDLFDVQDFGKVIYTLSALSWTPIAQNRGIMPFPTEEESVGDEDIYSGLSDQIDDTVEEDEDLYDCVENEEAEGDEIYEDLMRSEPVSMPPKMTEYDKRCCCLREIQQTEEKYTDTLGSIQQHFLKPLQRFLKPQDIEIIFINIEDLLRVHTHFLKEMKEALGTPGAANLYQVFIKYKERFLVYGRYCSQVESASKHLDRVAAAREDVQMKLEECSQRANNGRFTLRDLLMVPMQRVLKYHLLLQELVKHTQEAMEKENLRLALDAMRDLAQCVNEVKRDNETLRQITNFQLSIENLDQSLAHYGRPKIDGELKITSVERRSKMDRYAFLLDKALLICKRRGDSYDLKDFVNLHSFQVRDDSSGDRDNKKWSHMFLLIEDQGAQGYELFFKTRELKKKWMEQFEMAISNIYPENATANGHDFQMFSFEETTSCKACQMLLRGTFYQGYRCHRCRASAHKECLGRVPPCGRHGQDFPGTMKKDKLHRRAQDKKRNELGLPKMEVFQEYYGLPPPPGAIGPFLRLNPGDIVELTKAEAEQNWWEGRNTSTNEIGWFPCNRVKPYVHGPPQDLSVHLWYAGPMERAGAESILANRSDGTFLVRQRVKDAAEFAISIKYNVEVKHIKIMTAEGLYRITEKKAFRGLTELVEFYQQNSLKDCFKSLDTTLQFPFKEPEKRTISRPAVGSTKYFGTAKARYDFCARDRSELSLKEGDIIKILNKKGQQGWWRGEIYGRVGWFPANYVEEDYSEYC
# VAV2 = biological target: T9, VAV2 (Homo sapiens, UniProt P52735)
# T9 construct: made in house; host or cells: HEK293 (transient transfection), unpurified extract
# T9 sequence (P52735 1-878): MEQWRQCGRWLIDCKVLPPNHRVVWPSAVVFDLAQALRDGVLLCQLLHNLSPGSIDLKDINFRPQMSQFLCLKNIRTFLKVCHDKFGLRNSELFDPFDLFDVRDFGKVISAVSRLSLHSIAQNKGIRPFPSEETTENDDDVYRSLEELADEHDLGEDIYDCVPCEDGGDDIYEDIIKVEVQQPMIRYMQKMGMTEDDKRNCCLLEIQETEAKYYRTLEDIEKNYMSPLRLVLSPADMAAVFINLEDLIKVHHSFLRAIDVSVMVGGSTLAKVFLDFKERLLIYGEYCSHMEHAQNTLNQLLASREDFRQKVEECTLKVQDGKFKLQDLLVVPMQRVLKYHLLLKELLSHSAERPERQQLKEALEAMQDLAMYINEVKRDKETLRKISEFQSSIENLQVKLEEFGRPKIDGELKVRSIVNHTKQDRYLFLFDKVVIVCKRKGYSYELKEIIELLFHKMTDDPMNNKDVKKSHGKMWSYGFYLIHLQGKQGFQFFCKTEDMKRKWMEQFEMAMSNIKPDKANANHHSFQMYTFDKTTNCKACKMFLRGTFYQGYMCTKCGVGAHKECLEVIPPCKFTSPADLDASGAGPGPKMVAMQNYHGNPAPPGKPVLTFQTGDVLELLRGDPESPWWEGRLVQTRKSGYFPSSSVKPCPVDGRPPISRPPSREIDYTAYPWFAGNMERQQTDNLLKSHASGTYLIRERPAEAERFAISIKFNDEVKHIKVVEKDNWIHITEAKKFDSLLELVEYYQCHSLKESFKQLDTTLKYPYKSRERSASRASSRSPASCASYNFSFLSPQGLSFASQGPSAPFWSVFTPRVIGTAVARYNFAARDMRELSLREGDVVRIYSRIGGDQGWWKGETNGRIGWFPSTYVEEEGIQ
# VAV3 = biological target: T10, VAV3 (Homo sapiens, UniProt Q9UKW4)
# T10 construct: made in house; host or cells: HEK293 (transient transfection), unpurified extract
# T10 sequence (Q9UKW4 1-847): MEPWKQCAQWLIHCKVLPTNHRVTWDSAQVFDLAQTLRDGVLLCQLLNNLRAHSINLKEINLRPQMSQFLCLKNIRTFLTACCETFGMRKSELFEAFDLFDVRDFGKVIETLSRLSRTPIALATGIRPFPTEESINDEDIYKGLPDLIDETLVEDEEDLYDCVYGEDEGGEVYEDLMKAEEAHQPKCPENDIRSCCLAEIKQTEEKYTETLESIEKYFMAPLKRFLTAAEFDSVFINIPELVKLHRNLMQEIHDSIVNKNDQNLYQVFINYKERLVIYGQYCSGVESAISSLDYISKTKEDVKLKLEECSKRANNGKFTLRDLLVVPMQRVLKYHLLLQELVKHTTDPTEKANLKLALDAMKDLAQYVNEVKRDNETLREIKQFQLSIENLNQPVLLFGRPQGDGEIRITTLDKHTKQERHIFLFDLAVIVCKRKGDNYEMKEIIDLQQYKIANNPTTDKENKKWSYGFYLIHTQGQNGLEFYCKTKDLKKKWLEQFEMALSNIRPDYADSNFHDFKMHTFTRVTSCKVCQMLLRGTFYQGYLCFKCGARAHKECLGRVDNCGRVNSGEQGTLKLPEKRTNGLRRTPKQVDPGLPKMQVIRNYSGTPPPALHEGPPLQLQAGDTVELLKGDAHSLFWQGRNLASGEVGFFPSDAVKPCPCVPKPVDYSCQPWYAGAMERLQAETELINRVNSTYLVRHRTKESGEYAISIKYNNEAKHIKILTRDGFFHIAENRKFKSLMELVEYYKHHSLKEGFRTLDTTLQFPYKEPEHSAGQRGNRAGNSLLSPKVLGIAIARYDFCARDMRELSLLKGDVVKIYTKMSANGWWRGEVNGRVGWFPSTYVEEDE
# T4 sequence (P46109 14-102 limits assumed): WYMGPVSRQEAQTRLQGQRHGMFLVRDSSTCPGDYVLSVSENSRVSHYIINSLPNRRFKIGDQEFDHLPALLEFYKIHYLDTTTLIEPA
compound,measurement,setting,value
CC(=O)N[C@@H](CC(C)C)C(=O)N[C@@H](CC(C)C)C(=O)N1CCC[C@H]1C(=O)N[C@@H](CC(C)C)C(=O)N[C@@H](CC(=O)O)C(=O)N[C@@H](CCCCN)C(=O)N[C@@H](CC(=O)O)C(=O)N[C@@H](Cc1ccc(OP(=O)(O)O)cc1)C(=O)N[C@@H](Cc1ccc(OP(=O)(O)O)cc1)C(=O)N[C@H](C(=O)N[C@H](C(=O)N[C@@H](CCCNC(=N)N)C(=O)N[C@@H](CCC(=O)O)C(=O)N1CCC[C@H]1C(=O)NCC(=O)N[C@@H](CCC(N)=O)C(N)=O)C(C)C)C(C)C,Kd,DAPP1,41.3 ± 5.96 µM
same,Kd,SOCS4,0.00191 ± 0.0005 µM
CC[C@H](C)[C@H](NC(=O)[C@H](CCC(=O)O)NC(=O)[C@H](CCC(N)=O)NC(=O)[C@H](CCC(=O)O)NC(=O)[C@@H](NC(=O)[C@H](C)NC(C)=O)[C@@H](C)O)C(=O)N[C@H](C(=O)N[C@@H](Cc1ccc(OP(=O)(O)O)cc1)C(=O)N[C@@H](C)C(=O)N[C@@H](CCC(=O)O)C(=O)N[C@@H](CC(C)C)C(=O)N[C@@H](CC(N)=O)C(=O)N[C@@H](CC(C)C)C(=O)N[C@@H](CCC(N)=O)C(=O)N[C@@H](CCCCN)C(N)=O)[C@@H](C)O (Ac-ATEQEIT[pY]AELNLQK-NH2),Kd,PTPN6(SH2dom.C-term.),1.49 ± 0.666 µM
CC(=O)N[C@@H](CCC(=O)O)C(=O)N1CCC[C@H]1C(=O)NCC(=O)N1CCC[C@H]1C(=O)N[C@@H](Cc1ccc(OP(=O)(O)O)cc1)C(=O)N[C@@H](C)C(=O)N[C@@H](CCC(N)=O)C(=O)N1CCC[C@H]1C(=O)N[C@@H](CO)C(=O)N[C@H](C(=O)N[C@@H](CC(N)=O)C(=O)N[C@H](C(N)=O)[C@@H](C)O)C(C)C (Ac-EPGP[pY]AQPSVNT-NH2),Kd,CRKL,1.2 ± 0.309 µM
CSCC[C@H](NC(=O)[C@@H]1CCCN1C(=O)[C@H](CCC(=O)O)NC(=O)[C@H](C)NC(=O)[C@H](Cc1ccc(OP(=O)(O)O)cc1)NC(=O)[C@H](CC(=O)O)NC(=O)[C@H](CO)NC(=O)[C@@H]1CCCN1C(=O)[C@H](CC(=O)O)NC(=O)[C@H](Cc1ccccc1)NC(=O)CNC(C)=O)C(=O)N[C@@H](CC(=O)O)C(=O)N[C@@H](C)C(=O)N[C@H](C(=O)N[C@H](C(N)=O)C(C)C)C(C)C (Ac-GFDPSD[pY]AEPMDAVV-NH2),Kd,RASA1(SH2dom.C-term.),0.00411 ± 0.00048 µM
CC(=O)N[C@@H](CC(=O)O)C(=O)N[C@H](C(=O)N[C@@H](CCC(=O)O)C(=O)N[C@H](C(=O)N[C@@H](Cc1ccc(OP(=O)(O)O)cc1)C(=O)N[C@@H](CCC(=O)O)C(=O)N[C@@H](CO)C(=O)N1CCC[C@H]1C(=O)N[C@@H](Cc1ccc(OP(=O)(O)O)cc1)C(=O)N[C@@H](C)C(=O)N[C@@H](CC(=O)O)C(=O)N1CCC[C@H]1C(=O)N[C@@H](CCC(=O)O)C(N)=O)C(C)C)[C@@H](C)O [Ac-DTEVpYESPpYADPE-NH2] (Ac-DTEV[pY]ESP[pY]ADPE-NH2),Kd,PLCG1(SH2dom.C-term.),2.91 ± 2.74 µM
same,Kd,TXK,4.12 ± 0.637 µM
same,Kd,VAV1,1.4 ± 0.193 µM
same,Kd,VAV2,0.0951 ± 0.0199 µM
same,Kd,VAV3,0.163 ± 0.0482 µM
